Tested on: Emesis induced by cisplatin
Test: Anti-vomiting effect test: inhibition of cisplatin-induced emesis in suncus
Format: in vivo
Settings: 45 min before cisplatin 30 mg/kg i.v., emesises over 2 hours; for % value to control (number of emesises): control = 100%
Source text: Emesis induced by cisplatin is known to be inhibited by antagonists at 5-HT3 receptors. The anti-vomiting effect of the compound of the present invention was compared with that of the compound described in Example of Japanese Patent Kokai 2-209876 according to the method of Matsumoto et al [Japanese Journal of Pharmacology, vol. 48, pp. 303-306 (1988)].
The compound obtained in Example 4 (hereinafter referred to as "Compound A") and the compound described in Example 1 of Japanese Patent Kokai 2-209876 (hereinafter referred to as "Compound B") were each suspended in 0.4% aqueous carboxymethylcellulose solution to give test samples.
Group each of six suncus of either sex weighing 40-60 g (male) and 30-50 g (female) were used. Each animal was placed with a chronic intravenous cannula 3 days before vomiting test. The samples prepared above were orally administered in the doses of 0.03-3 mg/kg to each group of the animals. After 45 minutes 30 mg/kg of cisplatin was administered intravenously, and number of emesises was determined for a period of 2 hours. Number of emesises for a period of 2 hours of a control group treated with 0.4% carboxymethylcellulose suspension alone was determined as well.
Number of emesises obtained above was expressed as compared with 100% of the control, and IC50 value was calculated by number of emesises.

In the case of `Cc1nccn1Cc1csc2ccc3ccccc3c2c1=O.Cl` [Compound A, 2-[(2-Methyl-1-imidazolyl)methyl]-1H-naphtho-[2,1-b]thiopyran-1-one hydrochloride], the “% value to control (number of emesises)” value (0.03 mg/kg oral) is reported as 77.8%, the “% value to control (number of emesises)” value (0.3 mg/kg oral) is reported as 17.0% and the “% value to control (number of emesises)” value (3 mg/kg oral) is reported as 4.4%. The ED50 (oral, doses 0.03-3 mg/kg, read-out: IC50 value (number of emesises)) was 0.0904 mg/kg.
